Laboratory results published in patent publication US20240417764A1, “METHODS FOR THE PRODUCTION OF TRYPTOPHANS, TRYPTAMINES, INTERMEDIATES, SIDE PRODUCTS AND DERIVATIVES” (priority 2021, published 2024).

Legend:
[1] = molecular target: T1, endogenous Escherichia coli tryptophan synthase beta subunit (TrpB) (Escherichia coli, UniProt P0A879); test: TrpB substrate flexibility, in vivo conversion of substituted indoles to tryptophans; format: cell-based; conditions: sampled at 24 h
T1 construct: Yield for production of tryptophan derivatives by native E. coli TrpB from indole derivatives; endogenous in cells; host or cells: E. coli BL21 Star (DE3) carrying pETM6-SDM2x (empty vector for the TrpB-alone study)
T1 sequence (P0A877 whole entry): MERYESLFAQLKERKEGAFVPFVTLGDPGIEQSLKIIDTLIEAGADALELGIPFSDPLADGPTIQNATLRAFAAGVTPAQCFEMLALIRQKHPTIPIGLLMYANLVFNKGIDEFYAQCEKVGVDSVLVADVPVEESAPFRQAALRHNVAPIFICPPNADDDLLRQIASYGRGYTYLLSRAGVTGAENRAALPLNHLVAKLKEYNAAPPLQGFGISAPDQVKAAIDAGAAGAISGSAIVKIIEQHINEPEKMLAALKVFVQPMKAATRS
T1 sequence (P0A879 2-397): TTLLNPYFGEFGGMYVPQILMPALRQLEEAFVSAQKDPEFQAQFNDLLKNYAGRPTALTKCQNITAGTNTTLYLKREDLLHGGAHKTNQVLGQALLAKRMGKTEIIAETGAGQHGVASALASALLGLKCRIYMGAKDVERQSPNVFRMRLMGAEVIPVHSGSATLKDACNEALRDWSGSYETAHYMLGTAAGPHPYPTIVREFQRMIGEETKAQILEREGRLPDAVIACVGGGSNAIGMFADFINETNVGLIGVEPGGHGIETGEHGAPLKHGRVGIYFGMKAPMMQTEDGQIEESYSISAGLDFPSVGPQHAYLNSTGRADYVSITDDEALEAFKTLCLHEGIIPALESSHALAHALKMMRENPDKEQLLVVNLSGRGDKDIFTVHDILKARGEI
Description: (§1) Four previously constructed BL21 Star™ (DE3) cell lines with pETM6-SDM2x plasmid backbones were used, each with endogenous Escherichia coli (E. coli) tryptophan synthase beta subunit (TrpB); (1) no gene insert (empty vector), (2) PsiD gene insert with T7 promoter, (3) PsiD-PsiK gene insert with C4 promoter in operon configuration (pNor, Norbaeocystin Production Strain) (Adams et al., 2022), and (4) PsiD-PsiK-PsiM gene insert with H10 promoter in operon configuration (pSilo16, Psilocybin Production Strain; See WO 2021/086513) (Adams et al., 2019). For the PsiD transcriptional optimization study, each of the nine previously described library members were used, in lieu of the strains above. Overnight cultures were grown in Andrew's Magic Media (AMM) without MOPS, appropriate antibiotics for plasmid retention, and were inoculated from freezer stocks. Experimental cultures were incubated in covered 48-well plates at 37° C. in a shaking incubator. AMM media consistent with above was inoculated at 2% final volume of respective overnight culture and 2 mL aliquoted to each well. Indole derivatives were added to each well, except negative control, at 100 mg/L using 5 uL from a 40 mg/mL stock in EtOH. 4-Nitroindole at 13.3 mg/mL in EtOH was added using 15 uL due to solubility limitations. Cultures were induced at 2 hours using 1 mM ITPG. Cultures were sampled at 24 hours and subjected to LC-MS analysis as described below. Cultures with serine added were identical to those without, except for adding 4.5 g/L of serine prior to inoculation.
Without commercially available standards for many of these compounds absolute quantification of enzymatic products is not possible. Peak areas from one substituted indole could not be compared directly to peak areas from another substituted indole due to significant differences in extinction coefficients. Relative quantification was performed by comparing product UV 280 nm peak areas from HPLC analysis (mAU*min) to that of the corresponding substituted indole. TrpB proficiencies with and without serine were calculated by dividing the tryptophan product peak areas by the total peak areas from the indole and tryptophan peaks. Tryptophan and indole peak areas were determined from duplicate samples with indole and subtraction of any time-correlated peak areas found in the samples without indole addition. Any other indole related peak areas found in indole samples were included in the denominator. Indole related peaks were defined as peaks found in indole samples, but absent from samples without indole addition. Similar calculations were performed for PsiD proficiencies where tryptamine peak areas were divided by the total area of associated tryptamine and tryptophan peaks. Indole utilization was also calculated for PsiD proficiencies where the remaining indole peak areas were divided by the initial peak areas.

E. coli BL21 Star (DE3) = test: Culture growth of E. coli production host supplemented with indole derivatives; format: cell-based, Escherichia coli; conditions: indole derivative 100 mg/L in 48-well culture, 37 C, compared visually with other indoles
Description: as §1
Other indoles may have slowed cell growth, but the differences were not easily distinguishable visually as OD600 reading were not taken for every sample.

P. cubensis PsiD = molecular target: T2, P. cubensis PsiD (Psilocybe cubensis, UniProt P0DPA6, L22F); test: PsiD substrate flexibility, in vivo decarboxylation of substituted tryptophans to tryptamines; format: cell-based, Escherichia coli; conditions: in vivo in E. coli expressing PsiD, HPLC/LCMS detection
T2 construct: expressed in transfected cells; host or cells: E. coli BL21 Star (DE3); PsiD insert with the T7 promoter, or promoter/backbone library members, or pNor and pSilo16
T2 sequence (P0DPA6 whole entry, stated change not applied): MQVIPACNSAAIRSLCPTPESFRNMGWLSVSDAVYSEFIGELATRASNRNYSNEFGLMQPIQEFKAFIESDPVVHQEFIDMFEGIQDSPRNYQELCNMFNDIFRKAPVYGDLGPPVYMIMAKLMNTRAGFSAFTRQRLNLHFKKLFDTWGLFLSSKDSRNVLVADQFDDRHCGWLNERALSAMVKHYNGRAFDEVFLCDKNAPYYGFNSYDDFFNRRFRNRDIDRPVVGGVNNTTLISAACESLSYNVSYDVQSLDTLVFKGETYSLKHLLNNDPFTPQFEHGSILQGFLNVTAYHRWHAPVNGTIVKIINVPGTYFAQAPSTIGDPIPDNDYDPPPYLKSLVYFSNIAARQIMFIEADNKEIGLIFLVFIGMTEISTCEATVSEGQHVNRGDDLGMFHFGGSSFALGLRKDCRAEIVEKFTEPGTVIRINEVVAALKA
Description: as §1, with “Indole derivatives were added to each well, except negative control, at 100 mg/L using 5 uL from a 40 mg/mL stock in EtOH. 4-Nitroindole at 13.3 mg/mL in EtOH was added using 15 uL due to solubility limitations. Cultures were induced at 2 hours using 1 mM ITPG. Cultures were sampled at 24 hours and subjected to LC-MS analysis as described below. Cultures with serine added were identical to those without, except for adding 4.5 g/L of serine prior to inoculation.” left out
Without commercially available standards for many of these compounds absolute quantification of enzymatic products is not possible. […] Relative quantification was performed by comparing product UV 280 nm peak areas from HPLC analysis (mAU*min) to that of the corresponding substituted indole. TrpB proficiencies with and without serine were calculated by dividing the tryptophan product peak areas by the total peak areas from the indole and tryptophan peaks. Tryptophan and indole peak areas were determined from duplicate samples with indole and subtraction of any time-correlated peak areas found in the samples without indole addition. […] Indole utilization was also calculated for PsiD proficiencies where the remaining indole peak areas were divided by the initial peak areas.
PsiD substrate flexibility was evaluated jointly in vivo with TrpB, such that if indoles were not sufficiently processed by TrpB, then PsiD activity could not be evaluated. […]

[2] = with supplemental serine 4.5 g/L
[3] = without supplemental serine, indole 100 mg/L, tryptophan peak area / total indole-related peak areas (UV 280 nm)

| Compound | TrpB proficiency [1, 2] [%] | culture growth retardation (toxicity effects of the indole derivatives) (E. coli BL21 Star (DE3)) | TrpB proficiency (class) [1, 3] | other results |
| --- | --- | --- | --- | --- |
| Oc1cccc2[nH]ccc12 [4-hydroxyindole] | 100 | – | – | – |
| Ic1ccc2cc[nH]c2c1 [6-iodoindole] | – | significant culture growth retardation | moderate (35-65%) or low proficiency (5-35%) | – |
| Ic1cccc2cc[nH]c12 [7-iodoindole] | 100 | – | – | – |
| Nc1cccc2[nH]ccc12 [4-aminoindole] | 23 | significant culture growth retardation | moderate (35-65%) or low proficiency (5-35%) | – |
| Clc1ccc2[nH]ccc2c1 [5-chloroindole] | – | significant culture growth retardation | – | – |
| Clc1cc2ccccc2[nH]1 [2-chloroindole] | – | – | moderate (35-65%) or low proficiency (5-35%) | – |
| Cc1[nH]c2ccccc2c1C[C@H](N)C(=O)O [2-methyltryptophan] | – | – | – | PsiD conversion to tryptamine product (P. cubensis PsiD): neither tryptamine product was observed |
| Fc1cccc2cc[nH]c12 [7-fluoroindole] | 95 | significant culture growth retardation | moderate (35-65%) or low proficiency (5-35%) | TrpB proficiency [1, 3]: 45% |
| Cc1cccc2[nH]ccc12 [4-methylindole] | 93 | significant culture growth retardation | moderate (35-65%) or low proficiency (5-35%) | TrpB proficiency [1, 3]: 22% |
| COc1ccc2[nH]ccc2c1 [5-methoxyindole] | – | – | moderate (35-65%) or low proficiency (5-35%) | – |
| COc1ccc2cc[nH]c2c1 [6-methoxyindole] | – | – | moderate (35-65%) or low proficiency (5-35%) | – |
| Brc1cccc2[nH]ccc12 [4-bromoindole] | – | significant culture growth retardation | moderate (35-65%) or low proficiency (5-35%) | – |
| Ic1cccc2[nH]ccc12 [4-iodoindole] | – | significant culture growth retardation | moderate (35-65%) or low proficiency (5-35%) | – |
| Clc1cccc2[nH]ccc12 [4-chloroindole] | – | significant culture growth retardation | moderate (35-65%) or low proficiency (5-35%) | – |
| COc1cccc2[nH]ccc12 [4-methoxyindole] | – | – | moderate (35-65%) or low proficiency (5-35%) | – |
| Fc1ccc2[nH]ccc2c1 [5-fluoroindole] | – | significant culture growth retardation | moderate (35-65%) or low proficiency (5-35%) | – |
| Cc1cccc2cc[nH]c12 [7-methylindole] | 100 | – | – | – |

| Compound | TrpB proficiency [1, 2] [%] | culture growth retardation (toxicity effects of the indole derivatives) (E. coli BL21 Star (DE3)) | TrpB proficiency (class) [1, 3] | other results |
| --- | --- | --- | --- | --- |
| Oc1ccc2cc[nH]c2c1 [6-hydroxyindole] | 3 | – | – | – |
| Oc1ccc2[nH]ccc2c1 [5-hydroxyindole] | – | – | moderate (35-65%) or low proficiency (5-35%) | – |
| Brc1ccc2[nH]ccc2c1 [5-bromoindole] | – | significant culture growth retardation | – | – |
| N[C@@H](Cc1c(Cl)[nH]c2ccccc12)C(=O)O [2-chlorotryptophan] | – | – | – | PsiD conversion to tryptamine product (P. cubensis PsiD): neither tryptamine product was observed |
| Brc1ccc2cc[nH]c2c1 [6-bromoindole] | – | significant culture growth retardation | moderate (35-65%) or low proficiency (5-35%) | – |
| Cc1cc2ccccc2[nH]1 [2-methylindole] | 100 | – | – | PsiD conversion to tryptamine product (P. cubensis PsiD): no tryptamine product could be detected |
| Brc1cccc2cc[nH]c12 [7-bromoindole] | 100 | – | – | – |
| N#Cc1cccc2cc[nH]c12 [7-cyanoindole] | – | – | moderate (35-65%) or low proficiency (5-35%) | – |
| Nc1cccc2cc[nH]c12 [7-aminoindole] | – | – | moderate (35-65%) or low proficiency (5-35%) | – |
| O=[N+]([O-])c1ccc2cc[nH]c2c1 [6-nitroindole] | – | significant culture growth retardation | – | – |
| Clc1ccc2cc[nH]c2c1 [6-chloroindole] | – | significant culture growth retardation | moderate (35-65%) or low proficiency (5-35%) | – |
| Fc1ccc2cc[nH]c2c1 [6-fluoroindole] | – | significant culture growth retardation | moderate (35-65%) or low proficiency (5-35%) | – |
| Cc1ccc2[nH]ccc2c1 [5-methylindole] | – | – | moderate (35-65%) or low proficiency (5-35%) | – |
| Ic1ccc2[nH]ccc2c1 [5-iodoindole] | – | significant culture growth retardation | – | – |
| Oc1cccc2cc[nH]c12 [7-hydroxyindole] | 100 | – | – | – |
| Fc1cccc2[nH]ccc12 [4-fluoroindole] | 100 | significant culture growth retardation | moderate (35-65%) or low proficiency (5-35%) | TrpB proficiency [1, 3]: 27% |
| COc1cccc2cc[nH]c12 [7-methoxyindole] | 100 | – | – | – |
